Patent US20260274892A1, “MACROCYCLIC BROAD SPECTRUM ANTIBIOTICS” (RQx Pharmaceuticals, Inc., priority 2017, published 2026)

Assays:
[1] = test system: Methicillin Resistant Staphylococcus aureus strain USA 200; assay: Minimum inhibitory concentration (MIC), CLSI broth micro-dilution, S. aureus; assay type: cell-based; conditions: Staphylococcus aureus, MRSA / USA200; Table 6; MRSA USA 200; cation adjusted Mueller Hinton Broth + 0.002% Tween-80; 35° C., 22 hours
Method in brief: (§1)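 Colonies grown 20 h at 35° C on Trypticase Soy agar (MRSA) or Luria agar (E. coli) were suspended in cation-adjusted Mueller Hinton broth with 0.002% Tween-80. Suspensions were added at OD600 0.0005 to 10-point twofold compound dilutions, then incubated 22 h at 35° C.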

[2] = test system: Escherichia coli ATCC 25922; assay: Minimum inhibitory concentration (MIC), CLSI broth micro-dilution, E. coli; assay type: cell-based; conditions: Escherichia coli, ATCC25922, 22 h, Table 6, cation adjusted Mueller Hinton Broth + 0.002% Tween-80, 35° C.
Method in brief: as §1

| MIC [1] [µM] | MIC [2] [µM] | Compound |
| --- | --- | --- |
| 0.016 | 0.13 | CCCC1(Oc2ccc(-c3nc(C)c(C(=O)N[C@@H](CCN)C(=O)N(C)[C@@H]4C(=O)N[C@@H](C)C(=O)N[C@H](C(=O)NCC#N)Cc5ccc(OCCN)c(c5)-c5cc4ccc5OCCN)c(C)n3)cc2)CC1 (racemic) [Compound 346, rac-(8S,11S,14S)-3,18-bis(2-aminoethoxy)-N-(cyanomethyl)-11-methyl-14-[methyl-[rac-(2S)-4-amino-2-[[4,6-dimethyl-2-[4-(1-propylcyclopropoxy)phenyl]pyrimidine-5-carbonyl]amino]butanoyl]amino]-10,13-dioxo-9,12-diazatricyclo[13.3.1.12,6]icosa-1(18),2(20),3,5,15(19),16-hexaene-8-carboxamide] |
| 0.047 | 0.25 | CCCCC1(Oc2ccc(-c3nc(C)c(C(=O)N[C@@H](CCN)C(=O)N(C)[C@@H]4C(=O)N[C@@H](C)C(=O)N[C@H](C(=O)NCC#N)Cc5ccc(OCCN)c(c5)-c5cc4ccc5OCCN)c(C)n3)cc2)CC1 (racemic) [Compound 347, rac-(8S,11S,14S)-3,18-bis(2-aminoethoxy)-N-(cyanomethyl)-11-methyl-14-[methyl-[rac-(2S)-4-amino-2-[[2-[4-(1-butylcyclopropoxy)phenyl]-4,6-dimethyl-pyrimidine-5-carbonyl]amino]butanoyl]amino]-10,13-dioxo-9,12-diazatricyclo[13.3.1.12,6]icosa-1(18),2(20),3,5,15(19),16-hexaene-8-carboxamide] |
| 0.023 | 0.19 | Cc1nc(-c2ccc(OC3CCC(C)(C)CC3)cc2)nc(C)c1C(=O)N[C@@H](CCN)C(=O)N(C)[C@@H]1C(=O)N[C@@H](C)C(=O)N[C@H](C(=O)NCC#N)Cc2ccc(OCCN)c(c2)-c2cc1ccc2OCCN (racemic) [Compound 348, rac-(8S,11S,14S)-3,18-bis(2-aminoethoxy)-N-(cyanomethyl)-11-methyl-14-[methyl-[rac-(2S)-4-amino-2-[[2-[4-(4,4-dimethylcyclohexoxy)phenyl]-4,6-dimethyl-pyrimidine-5-carbonyl]amino]butanoyl]amino]-10,13-dioxo-9,12-diazatricyclo[13.3.1.12,6]icosa-1(18),2(20),3,5,15(19),16-hexaene-8-carboxamide] |
| 0.023 | 0.094 | Cc1nc(-c2ccc(OC3C[C@H]4CCCC[C@H]4C3)cc2)nc(C)c1C(=O)N[C@@H](CCN)C(=O)N(C)[C@@H]1C(=O)N[C@@H](C)C(=O)N[C@H](C(=O)NCC#N)Cc2ccc(OCCN)c(c2)-c2cc1ccc2OCCN (mixture of isomers) [Compound 349, rac-(8S,11S,14S)-3,18-bis(2-aminoethoxy)-N-(cyanomethyl)-11-methyl-14-[methyl-[rac-(2S)-4-amino-2-[[4,6-dimethyl-2-[4-[[rac-(3aR,7aS)-2,3,3a,4,5,6,7,7a-octahydro-1H-inden-2-yl]oxy]phenyl]pyrimidine-5-carbonyl]amino]butanoyl]amino]-10,13-dioxo-9,12-diazatricyclo[13.3.1.12,6]icosa-1(18),2(20),3,5,15(19),16-hexaene-8-carboxamide] |
| 0.016 | 0.094 | Cc1nc(-c2ccc(OC3C[C@@H]4CC[C@H]3C4)cc2)nc(C)c1C(=O)N[C@@H](CCN)C(=O)N(C)[C@@H]1C(=O)N[C@@H](C)C(=O)N[C@H](C(=O)NCC#N)Cc2ccc(OCCN)c(c2)-c2cc1ccc2OCCN (mixture of isomers) [Compound 350, rac-(8S,11S,14S)-3,18-bis(2-aminoethoxy)-N-(cyanomethyl)-11-methyl-14-[methyl-[rac-(2S)-4-amino-2-[[4,6-dimethyl-2-[4-[rac-(1S,4R)-norboman-2-yl]oxyphenyl]pyrimidine-5-carbonyl]amino]butanoyl]amino]-10,13-dioxo-9,12-diazatricyclo[13.3.1.12,6]icosa-1(18),2(20),3,5,15(19),16-hexaene-8-carboxamide] |
| 0.016 | 1.5 | CCCCc1ccc(Oc2nc(C)c(C(=O)N[C@@H](CCN)C(=O)N(C)[C@@H]3C(=O)N[C@@H](C)C(=O)N[C@H](C(=O)NCC#N)Cc4ccc(OCCN)c(c4)-c4cc3ccc4OCCN)c(C)n2)cc1 (racemic) [Compound 354, rac-(8S,11S,14S)-3,18-bis(2-aminoethoxy)-N-(cyanomethyl)-11-methyl-14-[methyl-[rac-(2S)-4-amino-2-[[2-(4-butylphenoxy)-4,6-dimethyl-pyrimidine-5-carbonyl]amino]butanoyl]amino]-10,13-dioxo-9,12-diazatricyclo[13.3.1.12,6]icosa-1(18),2(20),3,5,15(19),16-hexaene-8-carboxamide] |
| 0.094 | 4 | CCCCc1ccc(Oc2nc(C)c(C(=O)N[C@@H](CCN)C(=O)N(C)[C@@H]3C(=O)N[C@@H](C)C(=O)N[C@H](C(=O)NCC#N)Cc4ccc(OCCN)c(c4)-c4cc3ccc4OCCN)c(C)n2)cc1CCCC (racemic) [Compound 355, rac-(8S,11S,14S)-3,18-bis(2-aminoethoxy)-N-(cyanomethyl)-11-methyl-14-[methyl-[rac-(2S)-4-amino-2-[[2-(3,4-dibutylphenoxy)-4,6-dimethyl-pyrimidine-5-carbonyl]amino]butanoyl]amino]-10,13-dioxo-9,12-diazatricyclo[13.3.1.12,6]icosa-1(18),2(20),3,5,15(19),16-hexaene-8-carboxamide] |

| Compound | MIC [1] [µM] | MIC [2] [µM] |
| --- | --- | --- |
| CCCC(CCC)Oc1ccc(-c2nc(C)c(C(=O)N[C@@H](CCN)C(=O)N(C)[C@@H]3C(=O)N[C@@H](C)C(=O)N[C@H](C(=O)NCC#N)Cc4ccc(OCCN)c(c4)-c4cc3ccc4OCCN)c(C)n2)cc1 (racemic) [Compound 341, rac-(8S,11S,14S)-3,18-bis(2-aminoethoxy)-N-(cyanomethyl)-11-methyl-14-[methyl-[rac-(2S)-4-amino-2-[[4,6-dimethyl-2-[4-(1-propylbutoxy)phenyl]pyrimidine-5-carbonyl]amino]butanoyl]amino]-10,13-dioxo-9,12-diazatricyclo[13.3.1.12,6]icosa-1(18),2(20),3,5,15(19),16-hexaene-8-carboxamide] | 0.016 | 0.13 |
| Cc1nc(-c2ccc(OC(C)(C)C)cc2)nc(C)c1C(=O)N[C@@H](CCN)C(=O)N(C)[C@@H]1C(=O)N[C@@H](C)C(=O)N[C@H](C(=O)NCC#N)Cc2ccc(OCCN)c(c2)-c2cc1ccc2OCCN (racemic) [Compound 342, rac-(8S,11S,14S)-3,18-bis(2-aminoethoxy)-N-(cyanomethyl)-11-methyl-14-[methyl-[rac-(2S)-4-amino-2-[[2-(4-tert-butoxyphenyl)-4,6-dimethyl-pyrimidine-5-carbonyl]amino]butanoyl]amino]-10,13-dioxo-9,12-diazatricyclo[13.3.1.12,6]icosa-1(18),2(20),3,5,15(19),16-hexaene-8-carboxamide] | 0.097 | 0.39 |
| Cc1nc(-c2ccc(COC(C)(C)C)cc2)nc(C)c1C(=O)N[C@@H](CCN)C(=O)N(C)[C@@H]1C(=O)N[C@@H](C)C(=O)N[C@H](C(=O)NCC#N)Cc2ccc(OCCN)c(c2)-c2cc1ccc2OCCN (racemic) [Compound 343, rac-(8S,11S,14S)-3,18-bis(2-aminoethoxy)-N-(cyanomethyl)-11-methyl-14-[methyl-[rac-(2S)-4-amino-2-[[2-[4-(tert-butoxymethyl)phenyl]-4,6-dimethyl-pyrimidine-5-carbonyl]amino]butanoyl]amino]-10,13-dioxo-9,12-diazatricyclo[13.3.1.12,6]icosa-1(18),2(20),3,5,15(19),16-hexaene-8-carboxamide] | 0.13 | 0.75 |
